Laboratory results as given in patent publication EP1972623A1, “Arylpyridazines as fungicides” (Bayer CropScience AG, priority 2007, dated 2008).

Experiments:
[1] = test system: Venturia inaequalis; assay: Venturia test (apple) / protective; format: in vivo; details: 100 ppm Wirkstoff; apple plants sprayed protectively; evaluation 10 days after inoculation
From the text: Venturia - Test (Apfel) / protektiv
(§1) Zur Herstellung einer zweckmäßigen Wirkstoffzubereitung vermischt man 1 Gewichtsteil Wirkstoff mit den angegebenen Mengen Lösungsmittel und Emulgator und verdünnt das Konzentrat mit Wasser auf die gewünschte Konzentration.
Zur Prüfung auf protektive Wirksamkeit werden junge Pflanzen mit der Wirkstoffzubereitung in der angegebenen Aufwandmenge besprüht. Nach Antrocknen des Spritzbelages werden die Pflanzen mit einer wäßrigen Konidiensuspension des Apfelschorferregers Venturia inaequalis inokuliert und verbleiben dann 1 Tag bei ca. 20°C und 100% relativer Luftfeuchtigkeit in einer Inkubations-kabine.
Die Pflanzen werden dann im Gewächshaus bei ca, 21°C und einer relativen Luftfeuchtigkeit von ca. 90% aufgestellt.
(§2) 10 Tage nach der Inokulation erfolgt die Auswertung. Dabei bedeutet 0% ein Wirkungsgrad, der demjenigen der Kontrolle entspricht, während ein Wirkungsgrad von 100% bedeutet, daß kein Befall beobachtet wird.

[2] = test system: Botrytis cinerea; assay: Botrytis test (bean) / protective; format: in vivo; details: 250 ppm Wirkstoff; bean plants sprayed protectively; lesion size 2 days after inoculation
From the text: Botrytis - Test (Bohne) / protektiv
as §1
Zur Prüfung auf protektive Wirksamkeit werden junge Pflanzen mit der Wirkstoff-zubereitung in der angegebenen Aufwandmenge besprüht. Nach Antrocknen des Spritzbelages werden auf jedes Blatt 2 kleine mit Botrytis cinerea bewachsene Agarstückchen aufgelegt. Die inokulierten Pflanzen werden in einer abgedunkelten Kammer bei ca. 20°C und 100% relativer Luftfeuchtigkeit aufgestellt.
2 Tage nach der Inokulation wird die Größe der Befallsflecken auf den Blättern ausgewertet. Dabei bedeutet 0% ein Wirkungsgrad, der demjenigen der Kontrolle entspricht, während ein Wirkungsgrad von 100% bedeutet, daß kein Befall beobachtet wird.

[3] = logP determination via HPLC retention times (calibration with unbranched alkan-2-ones); format: physicochemical
From the text: Die Kalibrierung wurde jeweils mit unverzweigten Alkan-2-onn (3 bis 16 Kohlenstoff Atome) mit bekannten IogP Werten durchgeführt (Bestimmung von den logP Werten über die Retentionszeiten durch lineare Interpolation zwischen zwei bestimmten Alkazionen). Die Lambda-max Werte wurden jeweils in den Maxima der Chromatographie-Signale durch UV Spektren zwischen 190nm und 400nm bestimmt.

[4] = test system: Erysiphe graminis f.sp, hordei; assay: Erysiphe test (barley) / protective; format: in vivo; details: 1000 ppm Wirkstoff; barley plants sprayed protectively; evaluation 7 days after inoculation
From the text: Erysiphe-Test (Gerste) / protektiv
as §1
Zur Prüfung auf protektive Wirksamkeit besprüht man junge Pflanzen mit der Wirkstoffzubereitung in der angegebenen Aufwandmenge.
Nach Antrocknen des Spritzbelages werden die Pflanzen mit Sporen von Erysiphe graminis f.sp, hordei bestäubt.
Die Pflanzen werden in einem Gewächshaus bei einer Temperatur von ca. 20°C und einer relativen Luftfeuchtigkeit von ca. 80 % aufgestellt, um die Entwicklung von Mehltaupusteln zu begünstigen.
7 Tage nach der Inokulation erfolgt die Auswertung, Dabei bedeutet 0 % ein Wirkungsgrad, der demjenigen der Kontrolle entspricht, während ein Wirkungsgrad von 100 % bedeutet, daß kein Befall beobachtet wird.

[5] = test system: Pyrenophora teres; assay: Pyrenophora teres test (barley) / protective; format: in vivo; details: 1000 ppm Wirkstoff; barley plants sprayed protectively; evaluation 8 days after inoculation
From the text: Pyrenophora teres-Test (Gerste) / protektiv
as §1
(§3) Zur Prüfung auf protektive Wirksamkeit werden junge Pflanzen mit der Wirkstoffzubereitung in der angegeben Aufwandmenge besprüht, Nach Antrocknen des Spritzbelages werden die Pflanzen mit einer Konidiensuspension von Pyrenophora teres besprüht. Die Pflanzen verbleiben 48 Stunden bei 20°C und 100 % relativer Luftfeuchtigkeit in einer Inkubationskabine.
Die Pflanzen werden dann in einem Gewächshaus bei einer Temperatur von ca. 20°C und relativen Luftfeuchtigkeit von ca. 80 % aufgestellt.
8 Tage nach der Inokulation erfolgt die Auswertung. Dabei bedeutet 0 % ein Wirkungsgrad, der demjenigen der Kontrolle entspricht, während ein Wirkungsgrad von 100 % bedeutet, daß kein Befall beobachtet wird, […]

[6] = test system: Fusarium nivale (var. majus); assay: Fusarium nivale (var. majus) test (wheat) / protective; format: in vivo; details: 1000 ppm Wirkstoff; wheat plants sprayed protectively; evaluation 6 days after inoculation
From the text: Fusarium nivale (var. majus)-Test (Weizen) / protektiv
(§4) Zur Herstellung einer zweckmäßigen Wirkstoffzubereitung vermischt man 1 Gewichtsteil Wirkstoff mit den angegebenen Mengen Lösungsmittel und Emulgator und verdünnt das Konzentrat mit Wasser auf die gewünschte Konzentration,
Zur Prüfung auf protektive Wirksamkeit werden junge Pflanzen mit der Wirkstoffzubereitung in der angegebenen Aufwandmenge besprüht. Nach Antrocknen des Spritzbelages werden die Pflanzen mit einer Konidiensuspension von Fusarium nivale (var. majus) besprüht.
Die Pflanzen werden in einem Gewächshaus unter lichtdurchlässigen Inkubationshauben bei einer Temperatur von ca.15°C und einer relativen Luftfeuchtigkeit von ca. 100 % aufgestellt.
6 Tage nach der Inokulation erfolgt die Auswertung. Dabei bedeutet 0% ein Wirkungsgrad, der demjenigen der Kontrolle entspricht, während ein Wirkungsgrad von 100% bedeutet, daß kein Befall beobachtet wird.

[7] = test system: Leptosphaeria nodorum; assay: Leptosphaeria nodorum test (wheat) / protective; format: in vivo; details: 1000 ppm Wirkstoff; wheat plants sprayed protectively; evaluation 10 days after inoculation
From the text: Leptosphaeria nodorum-Test (Weizen) / protektiv
as §4
as §3, with “angegebenen” for “angegeben”, “besprüht” for “besprüht,”, “Sporensuspension” for “Konidiensuspension”, “Leptosphaeria nodorum besprüht,” for “Pyrenophora teres besprüht.”
Die Pflanzen werden in einem Gewächshaus bei einer Temperatur von ca. 20°C und einer relativen Luftfeuchtigkeit von 80 % aufgestellt.
as §2

[8] = HPLC on reversed-phase C 18 columns, EEC Directive 79/831 Annex V.A8, acidic aqueous mobile phase / acetonitrile, linear gradient 10% to 95% acetonitrile
[9] = from retention times, linear interpolation between alkan-2-ones

Row | Compound | chromatographic logP [3, 8] | chromatographic logP [3, 9] | other results
1 | Cc1nnc(Cl)c(-c2c(F)cccc2F)c1-c1ccc(Cl)s1 [Beispiel 103] | 3.84 | – | Wirkungsgrad [1]: ≥ 70%; Wirkungsgrad [2]: ≥ 70%
2 | Cc1nnc(Cl)c(-c2c(F)cccc2F)c1-c1cccs1 [Beispiel 100] | 3.12 | – | Wirkungsgrad [4]: ≥ 70%; Wirkungsgrad [5]: ≥ 70%; Wirkungsgrad [1]: ≥ 70%; Wirkungsgrad [6]: ≥ 70%; Wirkungsgrad [2]: ≥ 70%; Wirkungsgrad [7]: ≥ 70%
3 | Cc1nnc(Cl)c(-c2ccc(F)cc2Cl)c1-c1cccs1 [Beispiel 37] | 3.45 | – | Wirkungsgrad [1]: ≥ 70%; Wirkungsgrad [2]: ≥ 70%
4 | Cc1ccc(-c2c(C)nnc(Cl)c2-c2c(F)cccc2F)nc1C [Beispiel 101] | 2.88 | – | Wirkungsgrad [1]: ≥ 70%
5 | Cc1nnc(Cl)c(-c2c(F)cccc2Cl)c1-c1ccc(Cl)s1 [Beispiel 94] | 4.16 | – | Wirkungsgrad [1]: ≥ 70%; Wirkungsgrad [2]: ≥ 70%
6 | CC1(O)OC(=O)C(c2ccc(F)cc2Br)=C1c1cccs1 (stereo not shown) [3-(2-Brom-4-fluorphenyl)-4-(2-thienyl)-5-hydroxy-5-methylfuran-2(5H)-on] | – | 2.64 | –
7 | 3-(2-Methyl)-4-(2-thienyl)-5-hydroxy-5-methylfuran-2(5H)-on | – | – | logP [3, 9]: 2.59
8 | CC1(O)OC(=O)C(c2ccccc2F)=C1c1ccc(Cl)s1 (stereo not shown) [4-(5-Chlor-2-thienyl)-3-(2-fluorphenyl)-5-hydroxy-5-methylfuran-2(5H)-on] | – | 2.93 | –
9 | Cc1n[nH]c(=O)c(-c2ccccc2F)c1-c1ccc(Cl)s1 [5-(5-Chlor-2-thienyl)-4-(2-fluorphenyl)-6-methylpyridazin-3(2H)-on] | – | 2.64 | –
10 | Cc1nnc(Cl)c(-c2ccccc2F)c1-c1ccc(Cl)s1 [compound 118] | 3.7 | – | –
11 | CC1(O)OC(=O)C(c2c(F)cccc2F)=C1c1ccc(Cl)s1 (stereo not shown) [4-(5-Chlor-2-thienyl)-3-(2,6-difluorphonyl)-5-hydroxy-5-methylfuran-2(5H)-on] | – | 2.94 | –
12 | CC1(O)OC(=O)C(c2ccccc2Cl)=C1c1cccs1 (stereo not shown) [3-(2-Chlorphenyl)-4-(2-thienyl)-5-hydroxy-5-methylfuran-2(5H)-on] | – | 2.44 | –
13 | Cc1nnc(Cl)c(-c2ccccc2Cl)c1-c1cccs1 [compound 59] | 3.29 | – | –
14 | CC1(O)OC(=O)C(c2c(Cl)cccc2Cl)=C1c1cccs1 (stereo not shown) [3-(2,6-Dichlorphenyl)-4-(2-thienyl)-5-hydroxy-5-methylfuran-2(5H)-on] | – | 2.57 | –
15 | Cc1ccc(-c2c(C)nnc(Cl)c2-c2cc(F)c(F)cc2F)nc1C [compound 87] | 3.15 | – | –
16 | Cc1ccc(-c2c(C)n[nH]c(=O)c2-c2c(F)cccc2F)o1 [5-(5-Methyl-2-furyl)-4-(2,6-difluorphenyl)-6-methylpyridazin-3(2H)-on] | – | 2.19 | –
17 | COc1ccccc1-c1c(Cl)nnc(C)c1-c1ccc(Cl)s1 [compound 182] | 3.65 | – | –
18 | CC1(O)OC(=O)C(c2c(F)cccc2F)=C1c1ccncc1 (stereo not shown) [3-(2,6-Difluorphenyl)-4-(4-pyridyl)-5-hydroxy-5-methylfuran-2(5H)-on] | – | 1.4 | –
19 | Cc1nnc(Cl)c(-c2cccc(Cl)c2)c1-c1ccc(Cl)s1 [compound 173] | 4.07 | – | –
20 | Cc1nnc(Cl)c(-c2cccc3c2OC(F)(F)O3)c1-c1ccc(Cl)s1 [compound 1] | 4.33 | – | –
21 | Cc1n[nH]c(=O)c(-c2ccc(F)cc2Cl)c1-c1ccc(Cl)s1 [4-(2-Chlor-4-fluorphenyl)-5-(5-chlor-2-thienyl)-6-methylpyridazin-3(2H)-on] | – | 2.97 | –
22 | CC1(O)OC(=O)C(c2c(F)cccc2F)=C1c1cccs1 (stereo not shown) [3-(2,6-Difluorphenyl)4-(2-thienyl)-5-hydroxy-5-methylfuran-2(5H)-on] | – | 2.39 | –
23 | Cc1nnc(Cl)c(-c2cc(F)ccc2F)c1-c1ccc(Cl)s1 [compound 119] | 3.42 | – | –
24 | Cc1nnc(Cl)c(-c2ccc(F)cc2Br)c1-c1cccs1 [compound 11] | 3.56 | – | –
25 | Cc1n[nH]c(=O)c(-c2ccccc2Cl)c1-c1cccs1 [4-(2-Chlorphenyl)-5-(2-thienyl)-6-methylpyridazin-3(2H)-on] | – | 2.19 | –
26 | Cc1n[nH]c(=O)c(-c2c(Cl)cccc2Cl)c1-c1ccc(Cl)s1 [5-(5-Chlor-2-thienyl)-4-(2,6-dichlorphenyl)-6-methylpyridazin-3(2H)-on] | – | 3.11 | –
27 | CC1(O)OC(=O)C(c2cccc(Cl)c2)=C1c1cccs1 (stereo not shown) [3-(3-Chlorphenyl)-4-(2-thienyl)-5-hydroxy-5-methylfuran-2(5H)-on] | – | 2.73 | –
28 | Cc1nnc(Cl)c(-c2c(F)cccc2F)c1-c1ccncc1 [compound 102] | 2.08 | – | –
29 | Cc1n[nH]c(=O)c(-c2cccc(Cl)c2)c1-c1ccc(Cl)s1 [4-(3-Chlorphenyl)-5-(5-chlor-2-thienyl)-6-methylpyridazin-3(2H)-on] | – | 3.04 | –
30 | Cc1n[nH]c(=O)c(-c2ccccc2F)c1-c1cccs1 [4-(2-Fluorphonyl)-5-(2-thienyl)-6-methylpyridazin-3(2H)-on] | – | 2.06 | –
